Organism: Rattus norvegicus
Assay: DrugMatrix - Regimen: Daily Repeat
Format: toxicity, organism-based, Sprague-Dawley
Design: regimen Daily Repeat, gender Male, age 6-8 weeks
Conditions: in vivo; for ABSOLUTE BASOPHIL / ABSOLUTE EOSINOPHIL / ABSOLUTE LYMPHOCYTE / ABSOLUTE MONOCYTE / ABSOLUTE SEGMENTED NEUTROPHIL / BASOPHIL / EOSINOPHIL / ERYTHROCYTE COUNT / HEMATOCRIT / HEMOGLOBIN / LEUKOCYTE COUNT / LYMPHOCYTE / MEAN CORPUSCULAR HEMOGLOBIN / MEAN CORPUSCULAR HEMOGLOBIN CONCENTRATION / MEAN CORPUSCULAR VOLUME / MONOCYTE / NEUTROPHIL / NUCLEATED RED BLOOD CELLS / PLATELET COUNT: tissue Blood; for ALANINE AMINOTRANSFERASE / ALBUMIN / ALKALINE PHOSPHATASE / ASPARTATE AMINOTRANSFERASE / BLOOD UREA NITROGEN / CARBON DIOXIDE / CHLORIDE / CHOLESTEROL / CREATINE PHOSPHOKINASE / CREATININE / GLUCOSE / LACTATE DEHYDROGENASE / LIPASE / PHOSPHORUS / POTASSIUM / SODIUM / TOTAL BILIRUBIN / TOTAL PROTEIN / URIC ACID: tissue Plasma
[1] = iv, 0.02 mg/kg, 72 h, dose level Low, time 3 day, vehicle 100 % SALINE
[2] = iv, 0.02 mg/kg, 120 h, dose level Low, time 5 day, vehicle 100 % SALINE
[3] = iv, 43 mg/kg, 72 h, dose level High, time 3 day, vehicle 100 % SALINE
[4] = iv, 43 mg/kg, 120 h, dose level High, time 5 day, vehicle 100 % SALINE
[5] = po, 0 mg/kg, 72 h, route oral GAVAGE, dose level Control, time 3 day, […]

CC(CCc1ccc(O)cc1)NCCc1ccc(O)c(O)c1 (configuration not stated) [DOBUTAMINE]
ABSOLUTE BASOPHIL [1]: 0 CELLS/uL | ABSOLUTE EOSINOPHIL [1]: 0 CELLS/uL | ABSOLUTE LYMPHOCYTE [1]: 16404 CELLS/uL | ABSOLUTE MONOCYTE [1]: 67.67 CELLS/uL | ABSOLUTE SEGMENTED NEUTROPHIL [1]: 1828.33 CELLS/uL | BASOPHIL [1]: 0% | EOSINOPHIL [1]: 0% | ERYTHROCYTE COUNT [1]: 5.5 x10E6/uL | HEMATOCRIT [1]: 35.6% | HEMOGLOBIN [1]: 13.9 G/DL | LEUKOCYTE COUNT [1]: 18.3 x10E3/uL | LYMPHOCYTE [1]: 89.67% | MEAN CORPUSCULAR HEMOGLOBIN [1]: 25.27 pg | MEAN CORPUSCULAR HEMOGLOBIN CONCENTRATION [1]: 39.03 G/DL | MEAN CORPUSCULAR VOLUME [1]: 64.67 fL | MONOCYTE [1]: 0.33% | NEUTROPHIL [1]: 10% | NUCLEATED RED BLOOD CELLS [1]: 0 /100WBC | PLATELET COUNT [1]: 1067.33 x10E3/uL | ALANINE AMINOTRANSFERASE [1]: 57.33 u/L | ALBUMIN [1]: 4.07 G/DL | ALKALINE PHOSPHATASE [1]: 391.33 u/L | ASPARTATE AMINOTRANSFERASE [1]: 107.33 u/L | BLOOD UREA NITROGEN [1]: 15.67 mg/dL | CARBON DIOXIDE [1]: 28 mmol/L | CHLORIDE [1]: 97.33 MEQ/L | CHOLESTEROL [1]: 78 mg/dL | CREATINE PHOSPHOKINASE [1]: 548.67 u/L | CREATININE [1]: 0.13 mg/dL | GLUCOSE [1]: 175.33 mg/dL | LACTATE DEHYDROGENASE [1]: 236 u/L | LIPASE [1]: 10.33 u/L | PHOSPHORUS [1]: 12.27 mg/dL | POTASSIUM [1]: 7.46 MEQ/L | SODIUM [1]: 141.6 MEQ/L | TOTAL BILIRUBIN [1]: 0.3 mg/dL | TOTAL PROTEIN [1]: 5.77 G/DL | URIC ACID [1]: 1.63 mg/dL | ABSOLUTE BASOPHIL [2]: 0 CELLS/uL | ABSOLUTE EOSINOPHIL [2]: 0 CELLS/uL | ABSOLUTE LYMPHOCYTE [2]: 19433.33 CELLS/uL | ABSOLUTE MONOCYTE [2]: 145.67 CELLS/uL | ABSOLUTE SEGMENTED NEUTROPHIL [2]: 1621 CELLS/uL | BASOPHIL [2]: 0% | EOSINOPHIL [2]: 0% | ERYTHROCYTE COUNT [2]: 5.54 x10E6/uL | HEMATOCRIT [2]: 35.5% | HEMOGLOBIN [2]: 14 G/DL | LEUKOCYTE COUNT [2]: 21.2 x10E3/uL | LYMPHOCYTE [2]: 92% | MEAN CORPUSCULAR HEMOGLOBIN [2]: 25.27 pg | MEAN CORPUSCULAR HEMOGLOBIN CONCENTRATION [2]: 39.47 G/DL | MEAN CORPUSCULAR VOLUME [2]: 64.03 fL | MONOCYTE [2]: 0.67% | NEUTROPHIL [2]: 7.33% | NUCLEATED RED BLOOD CELLS [2]: 0.33 /100WBC | PLATELET COUNT [2]: 1240.33 x10E3/uL | ALANINE AMINOTRANSFERASE [2]: 61 u/L | ALBUMIN [2]: 4.03 G/DL | ALKALINE PHOSPHATASE [2]: 438.67 u/L | ASPARTATE AMINOTRANSFERASE [2]: 84.33 u/L | BLOOD UREA NITROGEN [2]: 18.67 mg/dL | CARBON DIOXIDE [2]: 27.33 mmol/L | CHLORIDE [2]: 101.33 MEQ/L | CHOLESTEROL [2]: 73.33 mg/dL | CREATINE PHOSPHOKINASE [2]: 325 u/L | CREATININE [2]: 0.14 mg/dL | GLUCOSE [2]: 163 mg/dL | LACTATE DEHYDROGENASE [2]: 262.67 u/L | LIPASE [2]: 8.67 u/L | PHOSPHORUS [2]: 11.8 mg/dL | POTASSIUM [2]: 7.21 MEQ/L | SODIUM [2]: 140.77 MEQ/L | TOTAL BILIRUBIN [2]: 0.13 mg/dL | TOTAL PROTEIN [2]: 6.03 G/DL | URIC ACID [2]: 1.63 mg/dL | ABSOLUTE BASOPHIL [3]: 0 CELLS/uL | ABSOLUTE EOSINOPHIL [3]: 0 CELLS/uL | ABSOLUTE LYMPHOCYTE [3]: 11605 CELLS/uL | ABSOLUTE MONOCYTE [3]: 107 CELLS/uL | ABSOLUTE SEGMENTED NEUTROPHIL [3]: 488 CELLS/uL | BASOPHIL [3]: 0% | EOSINOPHIL [3]: 0% | ERYTHROCYTE COUNT [3]: 5.51 x10E6/uL | HEMATOCRIT [3]: 36.1% | HEMOGLOBIN [3]: 14.37 G/DL | LEUKOCYTE COUNT [3]: 12.2 x10E3/uL | LYMPHOCYTE [3]: 95% | MEAN CORPUSCULAR HEMOGLOBIN [3]: 26.1 pg | MEAN CORPUSCULAR HEMOGLOBIN CONCENTRATION [3]: 39.8 G/DL | MEAN CORPUSCULAR VOLUME [3]: 65.6 fL | MONOCYTE [3]: 1% | NEUTROPHIL [3]: 4% | NUCLEATED RED BLOOD CELLS [3]: 0 /100WBC | PLATELET COUNT [3]: 1374.33 x10E3/uL | ALANINE AMINOTRANSFERASE [3]: 75.67 u/L | ALBUMIN [3]: 4.37 G/DL | ALKALINE PHOSPHATASE [3]: 486 u/L | ASPARTATE AMINOTRANSFERASE [3]: 91 u/L | BLOOD UREA NITROGEN [3]: 18 mg/dL | CARBON DIOXIDE [3]: 29.67 mmol/L | CHLORIDE [3]: 98.33 MEQ/L | CHOLESTEROL [3]: 67.33 mg/dL | CREATINE PHOSPHOKINASE [3]: 326 u/L | CREATININE [3]: 0.19 mg/dL | GLUCOSE [3]: 190 mg/dL | LACTATE DEHYDROGENASE [3]: 114.33 u/L | LIPASE [3]: 10 u/L | PHOSPHORUS [3]: 13.03 mg/dL | POTASSIUM [3]: 6.8 MEQ/L | SODIUM [3]: 143.43 MEQ/L | TOTAL BILIRUBIN [3]: 0.17 mg/dL | TOTAL PROTEIN [3]: 6.27 G/DL | URIC ACID [3]: 2.17 mg/dL | ABSOLUTE BASOPHIL [4]: 0 CELLS/uL | ABSOLUTE EOSINOPHIL [4]: 0 CELLS/uL | ABSOLUTE LYMPHOCYTE [4]: 14283 CELLS/uL | ABSOLUTE MONOCYTE [4]: 137.67 CELLS/uL | ABSOLUTE SEGMENTED NEUTROPHIL [4]: 1112.67 CELLS/uL | BASOPHIL [4]: 0% | EOSINOPHIL [4]: 0% | ERYTHROCYTE COUNT [4]: 5.95 x10E6/uL | HEMATOCRIT [4]: 37.37% | HEMOGLOBIN [4]: 14.87 G/DL | LEUKOCYTE COUNT [4]: 15.53 x10E3/uL | LYMPHOCYTE [4]: 91.33% | MEAN CORPUSCULAR HEMOGLOBIN [4]: 25.13 pg | MEAN CORPUSCULAR HEMOGLOBIN CONCENTRATION [4]: 39.87 G/DL | MEAN CORPUSCULAR VOLUME [4]: 63.03 fL | MONOCYTE [4]: 1% | NEUTROPHIL [4]: 7.67% | NUCLEATED RED BLOOD CELLS [4]: 0 /100WBC | PLATELET COUNT [4]: 1213.67 x10E3/uL | ALANINE AMINOTRANSFERASE [4]: 48 u/L | ALBUMIN [4]: 4.33 G/DL | ALKALINE PHOSPHATASE [4]: 380 u/L | ASPARTATE AMINOTRANSFERASE [4]: 78.67 u/L | BLOOD UREA NITROGEN [4]: 19 mg/dL | CARBON DIOXIDE [4]: 29 mmol/L | CHLORIDE [4]: 100.67 MEQ/L | CHOLESTEROL [4]: 74.33 mg/dL | CREATINE PHOSPHOKINASE [4]: 277.67 u/L | CREATININE [4]: 0.24 mg/dL | GLUCOSE [4]: 147 mg/dL | LACTATE DEHYDROGENASE [4]: 321.33 u/L | LIPASE [4]: 9.33 u/L | PHOSPHORUS [4]: 10.77 mg/dL | POTASSIUM [4]: 6.44 MEQ/L | SODIUM [4]: 143.33 MEQ/L | TOTAL BILIRUBIN [4]: 0.2 mg/dL | TOTAL PROTEIN [4]: 6.2 G/DL | URIC ACID [4]: 1.5 mg/dL | ABSOLUTE BASOPHIL [5]: 50 cells/µL | ABSOLUTE EOSINOPHIL [5]: 43.3 cells/µL | ABSOLUTE LYMPHOCYTE [5]: 9670 cells/µL | ABSOLUTE MONOCYTE [5]: 210 cells/µL | BASOPHIL [5]: 0.4% | EOSINOPHIL [5]: 0.37% | ERYTHROCYTE COUNT [5]: 6.82 x10E6/uL | HEMATOCRIT [5]: 46.77% | HEMOGLOBIN [5]: 14.53 G/DL | LEUKOCYTE COUNT [5]: 11.77 x10E3/uL | LYMPHOCYTE [5]: 82.1% | MEAN CORPUSCULAR HEMOGLOBIN [5]: 21.33 pg | MEAN CORPUSCULAR HEMOGLOBIN CONCENTRATION [5]: 31.13 G/DL | MEAN CORPUSCULAR VOLUME [5]: 68.57 fL | MONOCYTE [5]: 1.8% | NEUTROPHIL [5]: 14.83% | PLATELET COUNT [5]: 1303.33 x10E3/uL | ALANINE AMINOTRANSFERASE [5]: 46.67 u/L | ALBUMIN [5]: 4.17 G/DL | ALKALINE PHOSPHATASE [5]: 530 u/L | ASPARTATE AMINOTRANSFERASE [5]: 81.33 u/L | BLOOD UREA NITROGEN [5]: 17.67 mg/dL | CARBON DIOXIDE [5]: 41.67 mmol/L | CHLORIDE [5]: 102 MEQ/L | CHOLESTEROL [5]: 70.33 mg/dL | CREATINE PHOSPHOKINASE [5]: 372.67 u/L | CREATININE [5]: 0.5 mg/dL | GLUCOSE [5]: 184 mg/dL | LIPASE [5]: 13.33 u/L | PHOSPHORUS [5]: 10.2 mg/dL
